Experimental data reported in patent US20170260178A1 (SPERO GYRASE, INC., priority 2012, published 2017).
Read-outs that look alike come from different tables or passages of the source.

Experiments:
S. aureus (ATCC 29213) = assay: Bacterial assay: MIC against S. aureus; assay type: cell-based, Staphylococcus aureus; conditions: Staphylococcus aureus, ATCC29213, read-out: minimal inhibitory concentration (MIC)
S. pyogenes (ATCC 51339) = assay: Bacterial assay: MIC against S. pyogenes; assay type: cell-based, Streptococcus pyogenes; conditions: Streptococcus pyogenes, ATCC51339, read-out: minimal inhibitory concentration (MIC)
[1] = system: H. influenzae (ATCC 49247); assay: Bacterial assay: MIC against H. influenzae; assay type: cell-based; conditions: Haemophilus influenzae
[2] = ATCC49247, H. influenzae ATCC 49247, read-out: minimal inhibitory concentration (MIC)

## CCNC(=O)Nc1nc2cc(-c3cnc(C(C)O)nc3)cc(-c3cc(CN4CC[C@H](F)C4)ccn3)c2s1 (stereo partly drawn) [Compound 64, 1-ethyl-3-[7-[4-[[(3S)-3-fluoropyrrolidin-1-yl]methyl]-2-pyridyl]-5-[2-(1-hydroxyethyl)pyrimidin-5-yl]-1,3-benzothiazol-2-yl]urea]
S. aureus (ATCC 29213)
  MIC: ≤ 1 µg/mL
S. pyogenes (ATCC 51339)
  MIC: ≤ 1 µg/mL
[1]; [2]
  MIC: ≤ 2 µg/mL

## CCNC(=O)Nc1nc2cc(-c3cnc(C(C)O)nc3)cc(-c3cc(OCCN4CCOCC4)ccn3)c2s1 (stereo not drawn) [Compound 75, 1-ethyl-3-[5-[2-(1-hydroxyethyl)pyrimidin-5-yl]-7-[4-(2-morpholinoethoxy)-2-pyridyl]-1,3-benzothiazol-2-yl]urea]
S. aureus (ATCC 29213)
  MIC: ≤ 1 µg/mL
S. pyogenes (ATCC 51339)
  MIC: ≤ 1 µg/mL
[1]; [2]
  MIC: ≤ 2 µg/mL

## CCNC(=O)Nc1nc2cc(-c3cnc([C@@H](O)[C@@H](C)O)nc3)cc(-c3ccccn3)c2s1 (relative stereo) [Compound 118, 1-[5-[2-[(1R*,2R*)-1,2-dihydroxypropyl]pyrimidin-5-yl]-7-(2-pyridyl)-1,3-benzothiazol-2-yl]-3-ethyl-urea]
S. aureus (ATCC 29213)
  MIC: ≤ 1 µg/mL
S. pyogenes (ATCC 51339)
  MIC: ≤ 1 µg/mL
[1]; [2]
  MIC: ≤ 2 µg/mL

## CCNC(=O)Nc1nc2cc(-c3cnc(C(C)(C)O)nc3)cc(-c3cc(CN4CC(OC)C4)ccn3)c2s1 [Compound 31, 1-ethyl-3-[5-[2-(1-hydroxy-1-methyl-ethyl)pyrimidin-5-yl]-7-[4-[(3-methoxyazetidin-1-yl)methyl]-2-pyridyl]-1,3-benzothiazol-2-yl]urea]
S. aureus (ATCC 29213)
  MIC: ≤ 1 µg/mL
S. pyogenes (ATCC 51339)
  MIC: ≤ 1 µg/mL
[1]; [2]
  MIC: ≤ 2 µg/mL

## CCNC(=O)Nc1nc2cc(-c3cnc(C(C)O)nc3)cc(-c3ccc(C)cn3)c2s1 (stereo not drawn) [Compound 158, 1-ethyl-3-[5-[2-[1-hydroxyethyl]pyrimidin-5-yl]-7-(5-methyl-2-pyridyl)-1,3-benzothiazol-2-yl]urea]
S. aureus (ATCC 29213)
  MIC: ≤ 1 µg/mL
S. pyogenes (ATCC 51339)
  MIC: ≤ 1 µg/mL
[1]; [2]
  MIC: ≤ 2 µg/mL

## CNC(=O)Nc1nc2cc(-c3cnc(C(C)O)nc3)cc(-c3ccccn3)c2s1 (stereo not drawn) [Compound 83, 1-[5-[2-(1-hydroxyethyl)pyrimidin-5-yl]-7-(2-pyridyl)-1,3-benzothiazol-2-yl]-3-methyl-urea]
S. aureus (ATCC 29213)
  MIC: ≤ 1 µg/mL
S. pyogenes (ATCC 51339)
  MIC: ≤ 1 µg/mL
[1]; [2]
  MIC: ≤ 2 µg/mL

## [2H]C1([2H])OC([2H])([2H])C([2H])([2H])N(Cc2ccnc(-c3cc(-c4cnc(C(C)O)nc4)cc4nc(NC(=O)NCC)sc34)c2)C1([2H])[2H] (stereo not drawn) [Compound 70, 1-ethyl-3-[5-[2-(1-hydroxyethyl)pyrimidin-5-yl]-7-[4-[(2,2,3,3,5,5,6,6-octadeuteriomorpholin-4-yl)methyl]-2-pyridyl]-1,3-benzothiazol-2-yl]urea]
S. aureus (ATCC 29213)
  MIC: ≤ 1 µg/mL
S. pyogenes (ATCC 51339)
  MIC: ≤ 1 µg/mL
[1]; [2]
  MIC: ≤ 2 µg/mL

## CCNC(=O)Nc1nc2cc(-c3cnc(N4CCC(C)(C(=O)O)CC4)nc3)cc(-c3cc(C(C)O)ccn3)c2s1 (stereo not drawn) [Compound 88, 1-[5-[2-(ethylcarbamoylamino)-7-[4-(1-hydroxyethyl)-2-pyridyl]-1,3-benzothiazol-5-yl]pyrimidin-2-yl]-4-methyl-piperidine-4-carboxylic acid]
S. aureus (ATCC 29213)
  MIC: ≤ 1 µg/mL
S. pyogenes (ATCC 51339)
  MIC: ≤ 1 µg/mL
[1]; [2]
  MIC: ≤ 2 µg/mL

## CCNC(=O)Nc1nc2cc(-c3cnc(C(C)O)nc3)cc(-c3cc(CN4CCOCC4)ccn3)c2s1 (stereo not drawn) [Compound 55, 1-ethyl-3-[5-[2-(1-hydroxyethyl)pyrimidin-5-yl]-7-[4-(morpholinomethyl)-2-pyridyl]-1,3-benzothiazol-2-yl]urea]
S. aureus (ATCC 29213)
  MIC: ≤ 1 µg/mL
S. pyogenes (ATCC 51339)
  MIC: ≤ 1 µg/mL
[1]; [2]
  MIC: ≤ 2 µg/mL

## CCNC(=O)Nc1nc2cc(-c3cnc([C@@H](O)[C@H](O)C(F)(F)F)nc3)cc(-c3ccccn3)c2s1 (relative stereo) [Compound 131, 1-ethyl-3-[7-(2-pyridyl)-5-[2-[(1R*,2S*)-3,3,3-trifluoro-1,2-dihydroxy-propyl]pyrimidin-5-yl]-1,3-benzothiazol-2-yl]urea]
S. aureus (ATCC 29213)
  MIC: ≤ 1 µg/mL
S. pyogenes (ATCC 51339)
  MIC: ≤ 1 µg/mL
[1]; [2]
  MIC: ≤ 2 µg/mL

## CCNC(=O)Nc1nc2cc(-c3cnc(C(C)(C)O)nc3)cc(-c3cc(CN4CCOCC4)ccn3)c2s1 [Compound 28, 1-ethyl-3-[5-[2-(1-hydroxy-1-methyl-ethyl)pyrimidin-5-yl]-7-[4-(morpholinomethyl)-2-pyridyl]-1,3-benzothiazol-2-yl]urea]
S. aureus (ATCC 29213)
  MIC: ≤ 1 µg/mL
S. pyogenes (ATCC 51339)
  MIC: ≤ 1 µg/mL
[1]; [2]
  MIC: ≤ 2 µg/mL

## CCNC(=O)Nc1nc2cc(-c3cnc([C@@]4(O)CCOC[C@H]4O)nc3)cc(-c3ccccn3)c2s1 (relative stereo) [Compound 8, 1-[5-[2-[(3R*,4S*)-3,4-dihydroxytetrahydropyran-4-yl]pyrimidin-5-yl]-7-(2-pyridyl)-1,3-benzothiazol-2-yl]-3-ethyl-urea]
S. aureus (ATCC 29213)
  MIC: ≤ 1 µg/mL
S. pyogenes (ATCC 51339)
  MIC: ≤ 1 µg/mL
[1]; [2]
  MIC: ≤ 2 µg/mL

## CCNC(=O)Nc1nc2cc(-c3cnc(C(C)(C)O)nc3)cc(-c3cc(CN4CC(O)C4)ccn3)c2s1 [Compound 30, 1-ethyl-3-[7-[4-[(3-hydroxyazetidin-1-yl)methyl]-2-pyridyl]-5-[2-(1-hydroxy-1-methyl-ethyl)pyrimidin-5-yl]-1,3-benzothiazol-2-yl]urea]
S. aureus (ATCC 29213)
  MIC: ≤ 1 µg/mL
S. pyogenes (ATCC 51339)
  MIC: ≤ 1 µg/mL
[1]; [2]
  MIC: ≤ 2 µg/mL

## CCNC(=O)Nc1nc2cc(-c3cnc(C(C)(C)O)nc3)cc(-c3cc(CN4CC(C)(OC)C4)ccn3)c2s1 [Compound 114, 1-ethyl-3-[5-[2-(1-hydroxy-1-methyl-ethyl)pyrimidin-5-yl]-7-[4-[(3-methoxy-3-methyl-azetidin-1-yl)methyl]-2-pyridyl]-1,3-benzothiazol-2-yl]urea]
S. aureus (ATCC 29213)
  MIC: ≤ 1 µg/mL
S. pyogenes (ATCC 51339)
  MIC: ≤ 1 µg/mL
[1]; [2]
  MIC: ≤ 2 µg/mL

## CCNC(=O)Nc1nc2cc(-c3cnc(C(C)(O)CO)nc3)cc(-c3ccccn3)c2s1 (stereo not drawn) [Compound 157, 1-[5-[2-[1,2-dihydroxy-1-methyl-ethyl]pyrimidin-5-yl]-7-(2-pyridyl)-1,3-benzothiazol-2-yl]-3-ethyl-urea]
S. aureus (ATCC 29213)
  MIC: ≤ 1 µg/mL
S. pyogenes (ATCC 51339)
  MIC: ≤ 1 µg/mL
[1]; [2]
  MIC: ≤ 2 µg/mL

## CCNC(=O)Nc1nc2cc(-c3cnc(C(C)O)nc3)cc(-c3cc(CN4C[C@@H](C)O[C@@H](C)C4)ccn3)c2s1 (stereo partly drawn) [Compound 69, 1-[7-[4-[[(2R,6S)-2,6-dimethylmorpholin-4-yl]methyl]-2-pyridyl]-5-[2-(1-hydroxyethyl)pyrimidin-5-yl]-1,3-benzothiazol-2-yl]-3-ethyl-urea]
S. aureus (ATCC 29213)
  MIC: ≤ 1 µg/mL
S. pyogenes (ATCC 51339)
  MIC: ≤ 1 µg/mL
[1]; [2]
  MIC: ≤ 2 µg/mL

## CCNC(=O)Nc1nc2cc(-c3cnc(C(C)(C)O)nc3)cc(-c3cc(OCCOC)ccn3)c2s1 [Compound 80, 1-ethyl-3-[5-[2-(1-hydroxy-1-methyl-ethyl)pyrimidin-5-yl]-7-[4-(2-methoxyethoxy)-2-pyridyl]-1,3-benzothiazol-2-yl]urea]
S. aureus (ATCC 29213)
  MIC: ≤ 1 µg/mL
S. pyogenes (ATCC 51339)
  MIC: ≤ 1 µg/mL
[1]; [2]
  MIC: ≤ 2 µg/mL

## CCNC(=O)Nc1nc2cc(-c3cnc(C4(O)CCOCC4)nc3)cc(-c3ccccn3)c2s1 [Compound 111, 1-ethyl-3-[5-[2-(4-hydroxytetrahydropyran-4-yl)pyrimidin-5-yl]-7-(2-pyridyl)-1,3-benzothiazol-2-yl]urea]
S. aureus (ATCC 29213)
  MIC: ≤ 1 µg/mL
S. pyogenes (ATCC 51339)
  MIC: ≤ 1 µg/mL
[1]; [2]
  MIC: ≤ 2 µg/mL

## CCNC(=O)Nc1nc2cc(-c3cnc([C@H](C)OC(=O)[C@H](N)C(C)C)nc3)cc(-c3ccccn3)c2s1 [Compound 63, [(1S)-1-[5-[2-(ethylcarbamoylamino)-7-(2-pyridyl)-1,3-benzothiazol-5-yl]pyrimidin-2-yl]ethyl] (2R)-2-amino-3-methyl-butanoate]
S. aureus (ATCC 29213)
  MIC: ≤ 1 µg/mL
S. pyogenes (ATCC 51339)
  MIC: ≤ 1 µg/mL
[1]; [2]
  MIC: ≤ 2 µg/mL

## CCNC(=O)Nc1nc2cc(-c3ccc(C(O)C(F)(F)F)nc3)cc(-c3cc(OCCN4CCOCC4)ccn3)c2s1 (stereo not drawn) [Compound 116, 1-ethyl-3-[7-[4-(2-morpholinoethoxy)-2-pyridyl]-5-[6-(2,2,2-trifluoro-1-hydroxy-ethyl)-3-pyridyl]-1,3-benzothiazol-2-yl]urea]
S. aureus (ATCC 29213)
  MIC: ≤ 1 µg/mL
S. pyogenes (ATCC 51339)
  MIC: ≤ 1 µg/mL
[1]; [2]
  MIC: ≤ 2 µg/mL

## CCNC(=O)Nc1nc2cc(-c3cnc(C(C)O)nc3)cc(-c3cc(CN4CC(C)OCC4C)ccn3)c2s1 (stereo not drawn) [Compound 71, 1-[7-[4-[(2,5-dimethylmorpholin-4-yl)methyl]-2-pyridyl]-5-[2-(1-hydroxyethyl)pyrimidin-5-yl]-1,3-benzothiazol-2-yl]-3-ethyl-urea]
S. aureus (ATCC 29213)
  MIC: ≤ 1 µg/mL
S. pyogenes (ATCC 51339)
  MIC: ≤ 1 µg/mL
[1]; [2]
  MIC: ≤ 2 µg/mL

## CCCC(O)c1ncc(-c2cc(-c3ccccn3)c3sc(NC(=O)NCC)nc3c2)cn1 (stereo not drawn) [Compound 61, 1-ethyl-3-[5-[2-(1-hydroxybutyl)pyrimidin-5-yl]-7-(2-pyridyl)-1,3-benzothiazol-2-yl]urea]
S. aureus (ATCC 29213)
  MIC: ≤ 1 µg/mL
S. pyogenes (ATCC 51339)
  MIC: ≤ 1 µg/mL
[1]; [2]
  MIC: ≤ 2 µg/mL

## CCNC(=O)Nc1nc2cc(-c3cnc(C(C)(C)O)nc3)cc(-c3cc(OCCN4CCOCC4)ccn3)c2s1 [Compound 32, 1-ethyl-3-[5-[2-(1-hydroxy-1-methyl-ethyl)pyrimidin-5-yl]-7-[4-(2-morpholinoethoxy)-2-pyridyl]-1,3-benzothiazol-2-yl]urea]
S. aureus (ATCC 29213)
  MIC: ≤ 1 µg/mL
S. pyogenes (ATCC 51339)
  MIC: ≤ 1 µg/mL
[1]; [2]
  MIC: ≤ 2 µg/mL

## CCNC(=O)Nc1nc2cc(-c3cnc(C(C)O)nc3)cc(-c3cc(CP(=O)(OCC)OCC)ccn3)c2s1 (stereo not drawn) [Compound 100, 1-[7-[4-(diethoxyphosphorylmethyl)-2-pyridyl]-5-[2-(1-hydroxyethyl)pyrimidin-5-yl]-1,3-benzothiazol-2-yl]-3-ethyl-urea]
S. aureus (ATCC 29213)
  MIC: ≤ 1 µg/mL
S. pyogenes (ATCC 51339)
  MIC: ≤ 1 µg/mL
[1]; ATCC49247, read-out: minimal inhibitory concentration (MIC)
  MIC: ≤ 2 µg/mL

## CCNC(=O)Nc1nc2cc(-c3cnc(C(C)(C)O)nc3)cc(-c3cc(CN4CC(OCC)C4)ccn3)c2s1 [Compound 175, 1-[7-[4-[(3-ethoxyazetidin-1-yl)methyl]-2-pyridyl]-5-[2-(1-hydroxy-1-methyl-ethyl)pyrimidin-5-yl]-1,3-benzothiazol-2-yl]-3-ethyl-urea]
S. aureus (ATCC 29213)
  MIC: ≤ 1 µg/mL
S. pyogenes (ATCC 51339)
  MIC: ≤ 1 µg/mL
[1]; [2]
  MIC: ≤ 2 µg/mL

## CCNC(=O)Nc1nc2cc(-c3ccc(C(C)(C)O)nc3)cc(-c3ccccn3)c2s1 [Compound 27, 1-ethyl-3-[5-[6-(1-hydroxy-1-methyl-ethyl)-3-pyridyl]-7-(2-pyridyl)-1,3-benzothiazol-2-yl]urea]
S. aureus (ATCC 29213)
  MIC: ≤ 1 µg/mL
S. pyogenes (ATCC 51339)
  MIC: ≤ 1 µg/mL
[1]; [2]
  MIC: ≤ 2 µg/mL
